In this data set the target is T1, Solute carrier organic anion transporter family member 1A4 (Rattus norvegicus, UniProt O35913).
T1 sequence (O35913 whole entry): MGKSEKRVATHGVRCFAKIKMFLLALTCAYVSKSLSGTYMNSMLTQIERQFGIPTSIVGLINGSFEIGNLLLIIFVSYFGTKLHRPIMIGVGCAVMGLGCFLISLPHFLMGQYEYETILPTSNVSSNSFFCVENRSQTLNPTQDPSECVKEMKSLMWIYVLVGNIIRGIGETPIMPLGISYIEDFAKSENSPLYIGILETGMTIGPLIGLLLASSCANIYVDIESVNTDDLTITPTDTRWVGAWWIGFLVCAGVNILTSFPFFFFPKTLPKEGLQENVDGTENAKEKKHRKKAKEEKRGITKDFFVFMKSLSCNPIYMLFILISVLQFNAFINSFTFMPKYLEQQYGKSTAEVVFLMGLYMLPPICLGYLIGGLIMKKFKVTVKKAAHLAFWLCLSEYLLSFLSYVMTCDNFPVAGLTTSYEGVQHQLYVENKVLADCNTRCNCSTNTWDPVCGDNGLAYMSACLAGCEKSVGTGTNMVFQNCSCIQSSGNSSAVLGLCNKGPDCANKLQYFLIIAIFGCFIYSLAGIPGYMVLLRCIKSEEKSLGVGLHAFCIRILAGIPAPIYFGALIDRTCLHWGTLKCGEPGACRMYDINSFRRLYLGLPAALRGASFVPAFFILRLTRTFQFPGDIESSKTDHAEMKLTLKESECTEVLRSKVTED
In words: TP_TRANSPORTER: Western blot. The data set is classed as functional.

Turning to `Cc1ccc2cc3c(ccc4ccccc43)c3c2c1CC3` [3-METHYLCHOLANTHRENE], the Activity result was “inducer [Decrease]”.
